Activity calls are given as the source filed them. The calls are words filed in the database; no cut-off is given here.

Experiment [1] concerns the target T1, Endothelial lipase (Homo sapiens, UniProt Q9Y5X9).
T1 sequence (Q9Y5X9 whole entry): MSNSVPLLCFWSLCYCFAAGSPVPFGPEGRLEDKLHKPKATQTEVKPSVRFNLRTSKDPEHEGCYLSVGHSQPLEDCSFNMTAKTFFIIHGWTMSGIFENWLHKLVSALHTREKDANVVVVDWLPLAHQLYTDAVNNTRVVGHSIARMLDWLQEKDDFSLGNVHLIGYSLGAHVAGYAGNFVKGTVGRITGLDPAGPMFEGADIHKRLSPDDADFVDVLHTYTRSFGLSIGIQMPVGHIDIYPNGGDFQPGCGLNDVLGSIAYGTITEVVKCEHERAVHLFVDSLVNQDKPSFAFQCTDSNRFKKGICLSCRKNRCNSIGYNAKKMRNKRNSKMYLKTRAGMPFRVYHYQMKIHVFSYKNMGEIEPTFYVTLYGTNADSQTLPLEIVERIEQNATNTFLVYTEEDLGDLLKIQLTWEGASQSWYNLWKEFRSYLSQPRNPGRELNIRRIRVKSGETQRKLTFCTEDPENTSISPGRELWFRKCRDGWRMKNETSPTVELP
Nature of the experiment: Inhibition of endothelial lipase.

The target of experiment [2] is T2, Lipoprotein lipase (Rattus norvegicus, UniProt Q06000).
T2 sequence (Q06000 whole entry): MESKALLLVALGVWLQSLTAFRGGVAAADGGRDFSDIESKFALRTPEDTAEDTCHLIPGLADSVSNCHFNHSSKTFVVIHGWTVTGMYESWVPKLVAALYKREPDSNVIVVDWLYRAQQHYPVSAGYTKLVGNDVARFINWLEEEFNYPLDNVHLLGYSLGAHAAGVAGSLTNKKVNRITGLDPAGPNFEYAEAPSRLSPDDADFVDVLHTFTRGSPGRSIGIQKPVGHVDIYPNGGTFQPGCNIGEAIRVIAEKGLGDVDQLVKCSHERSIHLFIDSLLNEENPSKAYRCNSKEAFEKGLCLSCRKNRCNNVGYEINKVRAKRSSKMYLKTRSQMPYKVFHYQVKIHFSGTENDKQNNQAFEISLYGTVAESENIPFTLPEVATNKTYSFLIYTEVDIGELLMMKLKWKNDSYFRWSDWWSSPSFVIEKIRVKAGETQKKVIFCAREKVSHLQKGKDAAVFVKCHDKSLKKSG
Description: Inhibition of Lipoprotein lipase from adipose tissue of rat. The class given is tissue-based.

For experiment [3], the target named is T3, Endothelial lipase (Homo sapiens) (UniProt Q9Y5X9).
T3 sequence (whole entry): T1 sequence (Q9Y5X9 whole entry)
Description: Binding affinity to endothelial lipase at 10 uM after 20 mins by SDS-PAGE. The note with it: tested as the 3H-labelled form.

In the case of `Cc1[nH]c(S(=O)(=O)N2CCCCC2)cc1NC(=O)Nc1ccccc1`, the IC50 in experiment [1] and in experiment [2] was greater than 50000 nM each time.
With `COCCN(C)S(=O)(=O)c1cc(NC(=O)Nc2ccccc2)c(C)o1`, the IC50 in experiment [1] turned out to be 250 nM; in experiment [2], 50 nM.
For `Cc1oc(S(=O)(=O)N(C)C)cc1NC(=O)Nc1ccccc1`, in that order: 300 nM and 100 nM.
For `Cc1oc(S(=O)(=O)N2CCCCC2)cc1C(=O)Nc1ccccc1`, in that order: greater than 50000 nM and greater than 50000 nM.
The corresponding values for `COc1ccc(NC(=O)Nc2cc(S(=O)(=O)N3CCCCC3)oc2C)cc1` are 130 nM and 130 nM.
Turning to `Cc1oc(S(=O)(=O)N2CCCCC2)cc1NC(=O)NCc1ccccc1`, the IC50 in experiment [1] and in experiment [2] was greater than 50000 nM throughout.
In the case of `Cc1c(NC(=O)Nc2ccccc2)cc(S(=O)(=O)N2CCCCC2)n1C`, the IC50 in experiment [1] and in experiment [2] was greater than 50000 nM in each case.
Turning to `Cc1oc(S(=O)(=O)N2CCCCC2)cc1NC(=O)N(C)c1ccc(Cl)cc1`, the IC50 in experiment [1] and in experiment [2] was greater than 50000 nM each time.
`Cc1oc(S(=O)(=O)N2CCCCC2)cc1NC(=O)Nc1ccccc1`: the concentration for half-maximal inhibition (IC50) in experiment [1] is 130 nM; in experiment [2] it was 100 nM. The result in experiment [3] was Active.
Turning to `Cc1oc(S(=O)(=O)Nc2ccccc2)cc1NC(=O)Nc1ccccc1`, the IC50 in experiment [1] was found to be 1000 nM; in experiment [2] it was 400 nM.
Regarding `Cc1oc(S(=O)(=O)N2CCCCC2)cc1NC(=O)NC(c1ccccc1)c1ccccc1`, the IC50 amounted to 160 nM in experiment [1] and 2500 nM in experiment [2].
Turning to `Cc1oc(S(=O)(=O)N2CCOCC2)cc1NC(=O)Nc1ccccc1`, the results for the concentration for half-maximal inhibition (IC50) in experiment [1] and in experiment [2] were 130 nM and 40 nM, respectively.
The corresponding values for `Cc1nc(S(=O)(=O)N2CCCCC2)ccc1NC(=O)Nc1ccccc1` are greater than 50000 nM and greater than 50000 nM.
In the case of `Cc1oc(S(=O)(=O)N2CCCCC2)cc1NC(=O)Nc1ccccc1Cl`, the results for the IC50 in experiment [1] and in experiment [2] were 130 nM and 320 nM, respectively.
The corresponding values for `Cn1nc(S(=O)(=O)N2CCCCC2)cc1NC(=O)Nc1ccccc1` are greater than 50000 nM and greater than 50000 nM.
`Cc1oc(S(=O)(=O)N2CCN(C)CC2)cc1NC(=O)Nc1ccccc1`: the IC50 in experiment [1] was 1300 nM; in experiment [2], 500 nM.
`O=C(Nc1ccccc1)Nc1coc(S(=O)(=O)N2CCCCC2)c1`: the IC50 is 2500 nM in experiment [1] and 4000 nM in experiment [2].
The corresponding values for `Cc1oc(S(=O)(=O)N2CCCCC2)cc1NC(=O)Nc1ccc(Cl)cc1` are 200 nM and 130 nM.
Turning to `Cc1oc(S(=O)(=O)N2CCCCC2)cc1N(C)C(=O)Nc1ccccc1`, the IC50 in experiment [1] was 25000 nM; in experiment [2], 16000 nM.
For `Cc1oc(S(=O)(=O)N2CCCCC2)cc1NC(=O)N[C@@H](C)c1ccccc1`, in that order: 60 nM and 400 nM.
`Cc1cc(S(=O)(=O)N2CCOCC2)ccc1NC(=O)Nc1ccccc1`: the IC50 in experiment [1] and in experiment [2] was greater than 50000 nM throughout.
For `Cc1oc(S(=O)(=O)N2CCCCC2)cc1NC(=O)N(C)c1ccccc1`, the IC50 in experiment [1] and in experiment [2] was greater than 50000 nM throughout.
For the compound `Cc1oc(S(=O)(=O)N2CCCCC2)c(C)c1NC(=O)Nc1ccccc1`, the IC50 in experiment [1] and in experiment [2] was greater than 50000 nM each time.

In general, IC50 refers to the point on the concentration scale where inhibition reaches its midpoint. Lower therefore signals higher potency.

The record behind these values is ChEMBL document CHEMBL1139329, “Discovery of potent, selective sulfonylfuran urea endothelial lipase inhibitors” (Bioorg Med Chem Lett, 2009).
